The series can be described thus: Relative quantum yield determination for labeled nucleotides. It is filed as physicochemical. An excerpt: […] The concentration of this solution is matched with that of a solution of Compound 2 in the same solvent by matching the optical density (OD) at the absorption wavelength maximum, which is 504 nm for both samples.
[1] abbreviates: in methanol, relative to reference fluorophore.
[2] abbreviates: pH 9 phosphate buffer, OD matched at absorption maximum, excited at λmax, reference 4,4-difluoro-5,7-dimethyl-4-bora-3a,4a-diaza-s-indacene-3-propionic acid.
The mark [3] stands for this setting: pH 9 phosphate buffer, relative to reference fluorophore.

Regarding `Cc1cc(C)n2c1C=C1C=CC(CNC(=O)CSP(=O)(O)OP(=O)(O)OP(=O)(O)OC[C@H]3O[C@@H](n4cnc5c(=O)[nH]c(N)nc54)[C@H](O)[C@@H]3O)=[N+]1[B-]2(F)F` [Compound 2], the fluorescence quenched runs as follows: under setting [1], 41%; under setting [3], 89%. For the same compound, the “fluorescence yield relative to reference fluorophore” value under setting [1] worked out at 59% and the “fluorescence yield relative to reference fluorophore” value under setting [2] was determined as 11%.

Take `Nc1nc2c(ncn2[C@@H]2O[C@H](COP(=O)(O)OP(=O)(O)OP(=O)(O)SCC(=O)NCCCCCNC(=O)COc3ccc(C4=[N+]5C(=Cc6ccc(-c7cccs7)n6[B-]5(F)F)C=C4)cc3)[C@@H](O)[C@H]2O)c(=O)[nH]1` [Compound 4]: the fluorescence quenched is given as 25% under setting [1] and 90.9% under setting [3]. In addition, the “fluorescence yield relative to reference fluorophore” value reads like this: under setting [1], 75%; under setting [2], 9.1%.
